Laboratory results: PubChem BioAssay (NCI)
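Protocol summary: plate cells (96-well), add compound at 5 concentrations, incubate 48 h, interpolate endpoints linearly. The concentration for full growth arrest is given as TGI.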

What was measured:
Assay in all cases: NCI tumour cell line growth inhibition, 48 h
M14 melanoma = system: M14 melanoma
NCI/ADR-RES ovarian = system: NCI/ADR-RES ovarian
SF-539 CNS = system: SF-539 CNS
SN12C renal = system: SN12C renal
HCC-2998 colon = system: HCC-2998 colon
MDA-N = system: MDA-N
SK-OV-3 ovarian = system: SK-OV-3 ovarian
MDA-MB-435 = system: MDA-MB-435
UACC-257 melanoma = system: UACC-257 melanoma
OVCAR-5 ovarian = system: OVCAR-5 ovarian
IGROV1 ovarian = system: IGROV1 ovarian
RPMI-8226 leukemia = system: RPMI-8226 leukemia
TK-10 renal = system: TK-10 renal
MALME-3M melanoma = system: MALME-3M melanoma
K-562 leukemia = system: K-562 leukemia
SK-MEL-2 melanoma = system: SK-MEL-2 melanoma
DU-145 prostate = system: DU-145 prostate
EKVX NSCLC = system: EKVX NSCLC
HOP-62 NSCLC = system: HOP-62 NSCLC

Structure (SMILES)	TGI (M14 melanoma) [µM]	TGI (NCI/ADR-RES ovarian) [µM]	TGI (SF-539 CNS) [µM]	TGI (SN12C renal) [µM]	TGI (HCC-2998 colon) [µM]	TGI (MDA-N) [µM]	TGI (SK-OV-3 ovarian) [µM]	TGI (MDA-MB-435) [µM]	TGI (UACC-257 melanoma) [µM]	TGI (OVCAR-5 ovarian) [µM]	TGI (IGROV1 ovarian) [µM]	TGI (RPMI-8226 leukemia) [µM]	TGI (TK-10 renal) [µM]	TGI (MALME-3M melanoma) [µM]	TGI (K-562 leukemia) [µM]	TGI (SK-MEL-2 melanoma) [µM]	TGI (DU-145 prostate) [µM]	TGI (EKVX NSCLC) [µM]	TGI (HOP-62 NSCLC) [µM]
C1OCN2c3nonc3N3COCN4c5nonc5N1C2C43 (centres undefined)	> 100	> 100	> 100	> 100	> 100	> 100	> 100	> 100	> 100	> 100	> 100	> 100	> 100	> 100	> 100	> 100	> 100	> 100	–
COc1ccc(OC)c(CNc2ccc(O)c(C(=O)NCCc3ccc(F)cc3)c2)c1	26.8	> 100	35.7	71.9	8.98	23	46.3	8.34	41	64.9	20.9	15.4	94.9	–	19.1	26.4	34.5	65.6	21.4
COc1ccc(N2C(=O)C3c4[nH]c5ccccc5c4C4CCC(C(C)C)CC4C3C2=O)cc1 (centres undefined)	> 100	> 100	–	> 100	> 100	> 100	> 100	> 100	> 100	> 100	> 100	> 100	> 100	> 100	> 100	> 100	> 100	> 100	> 100
CC(=O)Oc1ccc(OC(Oc2ccccc2)c2ccccc2)cc1 (centres undefined)	32.1	90.3	49.8	29.2	39.7	42.2	> 100	94.3	64.5	> 100	> 100	–	> 100	52.9	> 100	–	> 100	> 100	> 100
c1ccc(C(CCN2CCCC2)c2ccccn2)cc1 (centres undefined)	> 100	> 100	–	> 100	> 100	> 100	> 100	> 100	> 100	> 100	> 100	> 100	> 100	> 100	> 100	> 100	> 100	> 100	> 100
Cc1cc(S(=O)(=O)O)ccc1N=Nc1ccc(N=Nc2c(O)ccc3ccccc23)c(C)c1	> 100	> 100	–	> 100	–	> 100	> 100	> 100	> 100	> 100	> 100	> 100	> 100	> 100	> 100	> 100	> 100	> 100	> 100
COC(=O)c1ccc(C)cc1C1CN=NC12Cc1cc(C)c(C)cc1C2=O (centres undefined)	> 100	> 100	> 100	> 100	81.7	> 100	–	96.6	> 100	> 100	> 100	> 100	> 100	> 100	> 100	–	> 100	99.7	> 100
c1ccc([C@H]2CN3CCSC3=N2)cc1	> 100	> 100	> 100	> 100	> 100	> 100	> 100	> 100	> 100	> 100	> 100	–	–	> 100	> 100	> 100	> 100	> 100	> 100
COC(=O)C[C@H](COCc1ccccc1)NC(=O)C[C@H](COCc1ccccc1)NC(=O)C[C@H](COCc1ccccc1)NC(=O)OC(C)(C)C	> 100	> 100	> 100	> 100	–	> 100	> 100	> 100	–	> 100	> 100	> 100	–	> 100	> 100	> 100	> 100	> 100	48
C=C(C)CC1=C(C(=S)NCCO[Si](C)(C)C(C)(C)C)C(OCC)(OCC)C1=O	35	> 100	37.8	42.2	–	43.2	41.4	41.9	32.1	28.5	31.3	–	34.8	27.1	–	34.4	76.3	34.4	34.3
CN(C)CCCNC(=O)c1cc(NC(=O)c2cc(NC(=O)c3cc(NC(=O)CCCn4ccc(CO)c4CO)cn3C)cn2C)cn1C	–	> 100	33.6	> 100	> 100	> 100	> 100	47.7	–	> 100	> 100	–	72.4	37.4	> 100	77	> 100	> 100	–
CC1=CC(=O)c2cccc(NC3=NCCO3)c21	> 100	82.5	> 100	> 100	> 100	> 100	> 100	86.2	–	> 100	> 100	> 100	> 100	91.6	> 100	> 100	> 100	> 100	> 100
O=C1c2ccccc2C2(c3ccc(Cl)cc3)NCc3ccccc3CN12 (centres undefined)	34	29.9	29.8	> 100	45.6	> 100	80.9	> 100	> 100	58.1	94.7	75.2	> 100	–	> 100	29.5	50.3	49.1	30.5
CC[C@@]1(O)C(=O)OCc2c1cc1n(c2=O)Cc2c-1nc1ccccc1c2/C=N\NC(=O)C(N)CS (some centres undefined)	10.5	> 45.2	0.806	> 22.8	> 100	> 100	> 100	> 100	> 100	> 100	> 85.3	> 100	> 100	> 100	> 100	> 100	6.76	> 100	–
O=C1Nc2ccccc2NC1C1OC(c2ccccc2)=CC1=O (centres undefined)	> 100	> 100	> 100	–	> 100	> 100	> 100	> 100	> 100	> 100	> 100	> 100	> 100	> 100	> 100	> 100	> 100	> 100	–
O=c1[nH]c(=O)n(C2CC(O)C(CO)O2)cc1NN=NCc1ccccc1 (centres undefined)	> 100	> 100	–	> 100	–	> 100	> 100	> 100	> 100	> 100	> 100	–	> 100	> 100	> 100	–	> 100	> 100	> 100
C=C1C(=O)[C@]23[C@H](O)[C@H]1CC[C@H]2[C@@]12CO[C@@]3(O)C[C@@H]1C(C)(C)CC[C@@H]2O	–	> 25	16.7	> 25	23.4	> 25	–	7.61	21.1	> 25	20.9	> 25	> 25	23.4	> 25	–	> 25	> 25	> 25
Cc1ccnc(NC(=S)Nc2ccccc2Cl)c1	> 100	> 100	> 100	> 100	–	> 100	> 100	> 100	> 100	> 100	> 100	> 100	> 100	> 100	> 100	> 100	> 100	> 100	> 100
C=CCN1CC2CN=NC2(C#N)C1 (centres undefined)	–	> 100	–	> 100	> 100	> 100	–	> 100	> 100	> 100	> 100	–	> 100	> 100	> 100	> 100	> 100	> 100	> 100
C=CCC1NCCC2=C1C(S(=O)(=O)c1ccc(C)cc1)c1ccccc12 (centres undefined)	26.8	28.5	–	28.5	3.6	20.2	33.2	17.5	> 53.4	33.2	23.3	27.8	32.7	24	63.4	27.1	24.3	33.5	28.2
FC1CCN(C2(c3cccs3)CCCCC2)CC1	> 100	> 100	–	> 100	> 100	> 100	> 100	> 100	> 100	> 100	> 100	> 100	> 100	> 100	> 100	> 100	> 100	> 100	> 100
Cc1ccc(S(=O)(=O)n2cc(-c3cnc(N)c(Br)n3)c3ccccc32)cc1	> 55.1	> 25.7	> 23.3	11.9	> 100	0.836	> 100	0.588	> 100	> 77.1	5.71	49.6	> 100	–	> 100	> 100	6.68	> 100	> 100
O=c1c2c([nH]c3cc4c(cc13)OCO4)-c1ccccc1CCC2	> 50	> 50	> 50	> 50	> 50	> 50	> 50	> 50	> 50	> 50	> 50	> 50	> 50	> 50	> 50	–	> 50	> 50	> 50
COC(=O)C1(NC(=O)C(N)CC(=O)O)C(C)C1C (centres undefined)	> 100	> 100	> 100	> 100	–	> 100	> 100	> 100	> 100	> 100	> 100	> 100	> 100	> 100	> 100	> 100	> 100	> 100	> 100
O=C(NCCO)c1c(O)c2ccccc2[nH]c1=O	–	> 100	> 100	> 100	> 100	> 100	–	> 100	> 100	> 100	> 100	> 100	> 100	> 100	> 100	–	> 100	> 100	> 100
N=C1N=C(N)c2cc3c(cc21)SCCSCCCSCCS3	35.7	> 100	> 54.6	33.2	27.8	33.8	41.1	15.9	44	40.3	38.4	–	28.6	44.4	31.8	37.7	88.4	> 58.5	30.7
Cc1ccc(O)c(Cc2nc3ccccc3nc2-c2cccc(Br)c2)c1	> 100	> 100	> 100	> 100	–	> 100	> 100	> 100	> 100	> 100	> 100	> 100	> 100	> 100	> 100	> 100	> 100	> 100	> 100
